Assay [1] can be described thus: Antioxidant activity assessed as DPPH scavenging activity after 30 mins by microplate reader method. In kind it is functional.
Assay [2] can be described thus: Antioxidant activity assessed as singlet 1O2 oxygen quenching activity after 2 mins by EPR spectrometry. In kind it is functional.
A short description of assay [3]: Antioxidant activity assessed as inhibition of TEMP-singlet 1O2 oxygen adduct formation measuring after 2 mins by EPR spectrometry. In kind it is functional.
Assay [4] is described as follows: Antioxidant activity assessed as inhibition of singlet 1O2 oxygen formation at 1.3 uM after 2 mins by EPR spectrometry. In kind it is functional.
The nature of assay [5]: Ratio of resveratrol IC50 to compound IC50 for singlet 1O2 oxygen quenching activity.
The nature of assay [6]: Antioxidant activity assessed as complete inhibition of singlet 1O2 oxygen formation at 37 uM after 2 mins by EPR spectrometry.

The record followed here is ChEMBL document CHEMBL2062421, “The antioxidant effect of imine resveratrol analogues” (Bioorg Med Chem Lett, 2012).

Activity calls are given as the source filed them. The rule behind the calls is not given here.

Broadly, the IC50 is the concentration needed to halve the response being measured.

As for `COc1cccc(/C=N/c2ccccc2C)c1`, the IC50 in assay [1] is above 1000 µM.

With `COc1cccc(/C=N/c2ccc(C)cc2)c1`, the IC50 in assay [1] is above 1000 µM. `Oc1ccc(/N=C/c2ccccc2)cc1` [4-(BENZYLIDENEAMINO)PHENOL]: in assay [1], the IC50 was 142 µM. The same measure, in the same setting: to `Oc1ccc(/C=N/c2cccc(O)c2)cc1` belongs 362 µM; to `Oc1cccc(/N=C/c2ccccc2O)c1`, 468 µM. Regarding `Oc1cccc(/C=N/c2ccccc2O)c1`, the values for the IC50 in assay [1] and in assay [2] were 23.1 µM and 2.18 µM, respectively.

As to `COc1cc(/C=N/c2ccc(O)cc2)cc(OC)c1`, the IC50 in assay [1] came to 413 µM. With `COc1cccc(/C=N/c2ccccc2O)c1`, the figures for the IC50 in assay [1] and in assay [2] were 24.9 µM and 1.42 µM, respectively.

On to `Oc1ccc(/N=C/c2cc(O)cc(O)c2)cc1`, for which the IC50 in assay [1] was 164 µM. Same read-out and setting: to `O=C1O[C@H]([C@@H](O)CO)C(O)=C1O` [ASCORBIC ACID] belongs 19.3 µM; to `COc1ccc(/C=N/c2ccc(OC)cc2)cc1`, above 1000 µM. Still for that read-out and setting: to `Oc1ccccc1/C=N/c1ccccc1` [2-((PHENYLIMINO)METHYL)PHENOL] belongs above 1000 µM. Regarding `COc1cc(/C=C/C(=O)CC(=O)/C=C/c2ccc(O)c(OC)c2)ccc1O` [CURCUMIN], the IC50 in assay [2] was 2.75 µM.

In the case of `Oc1ccccc1/C=N/c1ccccc1O`, the IC50 was 27.4 µM in assay [1] and 2.92 µM in assay [2].

For the molecule `Oc1ccc(/C=C/c2cc(O)cc(O)c2)cc1` [RESVERATROL], the figures for the IC50 in assay [1] and in assay [2] were 71.2 µM and 16.9 µM, respectively.

As for `COc1ccc(/N=C/c2ccc(O)cc2)cc1`, the half-inhibitory concentration (IC50) in assay [1] is above 1000 µM. As to `Oc1ccc(/C=N/c2ccccc2O)cc1`, the half-maximal inhibitory concentration (IC50) in assay [1] stood at 24.3 µM; in assay [2], 0.99 µM. Also, in assay [3], the inhibition result was “Dose-dependent effect”. Besides, the inhibition result in assay [4] and in assay [6] was “Active” throughout. The Ratio IC50 in assay [5] was above 15.

Take `Oc1ccccc1/N=C/c1ccccc1`: the concentration for half-maximal inhibition (IC50) in assay [1] was determined as 23.9 µM; in assay [2] it was 3.47 µM.

For the molecule `C(=N\c1ccccc1)/c1ccccc1`, the IC50 in assay [1] is above 1000 µM. The same measure, in the same setting: to `Oc1cccc(/C=N/c2ccccc2)c1` belongs above 1000 µM.

For the molecule `COc1ccc(/C=N/c2ccccc2O)cc1`, the IC50 in assay [1] is 28.1 µM; in assay [2], 1.3 µM. For `Cc1cccc(/N=C/c2ccc(O)cc2)c1`, in assay [1], the 50% inhibitory concentration (IC50) is above 1000 µM. For `Cc1ccc(/N=C/c2ccc(O)cc2)cc1`, the half-inhibitory concentration (IC50) in assay [1] is above 1000 µM. As to `Oc1ccc(/C=N/c2ccccc2O)cc1O`, the IC50 in assay [1] is 12.1 µM; in assay [2], 2.26 µM. Consider `Oc1ccc(/N=C/c2ccccc2O)cc1`, for which the IC50 in assay [1] was determined as 561 µM. On the same count and under the same terms, to `Cc1ccc(/N=C/c2cccc(O)c2)cc1` belongs above 1000 µM.
